In general, IC50 refers to the concentration needed to halve the response being measured. As a reminder, the EC50 is the concentration that produces a half-maximal response. By AC50 is commonly meant the midpoint of the concentration-response curve, whichever way the signal moves.

Data on 15 compounds can be found in ChEMBL document CHEMBL1201862, “PubChem BioAssay data set” (2004).

The target of test [1] is Hexokinase (Trypanosoma brucei, UniProt Q38C41). In words: Confirmation assay for inhibitors of Trypanosoma brucei hexokinase 1-Analogue-first series. [Related pubchem assays (depositor defined):AID1430, AID1632, AID2516, AID2560, AID2579, AID2600, AID449725, AID492951]. The format is functional.
Chain of Hexokinase (Q38C41 whole entry): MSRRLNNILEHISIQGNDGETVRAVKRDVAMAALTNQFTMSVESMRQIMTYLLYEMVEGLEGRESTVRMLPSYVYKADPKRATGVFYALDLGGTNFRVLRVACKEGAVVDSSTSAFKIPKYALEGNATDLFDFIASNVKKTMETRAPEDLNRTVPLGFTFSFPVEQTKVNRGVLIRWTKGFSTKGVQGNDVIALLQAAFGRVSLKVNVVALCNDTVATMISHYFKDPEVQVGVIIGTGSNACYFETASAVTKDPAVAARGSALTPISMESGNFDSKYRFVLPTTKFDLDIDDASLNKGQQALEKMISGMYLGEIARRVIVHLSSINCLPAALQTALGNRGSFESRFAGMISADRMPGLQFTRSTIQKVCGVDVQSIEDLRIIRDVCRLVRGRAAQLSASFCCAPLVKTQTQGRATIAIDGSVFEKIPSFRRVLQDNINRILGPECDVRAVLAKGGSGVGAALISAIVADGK
The target of test [2] is Voltage-dependent T-type calcium channel subunit alpha-1H (Homo sapiens, UniProt O95180). The test can be described thus: human CACNA1H calcium influx blockade – cell-based, synthetic library set 1, calcium flux (AID 493022). The test is classed as functional. On the technique in general: A change in cytosolic calcium serves as a functional read-out for many receptors and channels.

Test [3] concerns the target Hexokinase-1 (Homo sapiens, UniProt P19367). In words: HK1 enzyme activation by HKDC1 hits – biochemical, selectivity assay for HKDC1 activator project, dose response (AID 504762). The format is functional.
For test [4], the target named is T1, Hexokinase HKDC1 (Homo sapiens, UniProt Q2TB90).
T1 sequence (Q2TB90 whole entry): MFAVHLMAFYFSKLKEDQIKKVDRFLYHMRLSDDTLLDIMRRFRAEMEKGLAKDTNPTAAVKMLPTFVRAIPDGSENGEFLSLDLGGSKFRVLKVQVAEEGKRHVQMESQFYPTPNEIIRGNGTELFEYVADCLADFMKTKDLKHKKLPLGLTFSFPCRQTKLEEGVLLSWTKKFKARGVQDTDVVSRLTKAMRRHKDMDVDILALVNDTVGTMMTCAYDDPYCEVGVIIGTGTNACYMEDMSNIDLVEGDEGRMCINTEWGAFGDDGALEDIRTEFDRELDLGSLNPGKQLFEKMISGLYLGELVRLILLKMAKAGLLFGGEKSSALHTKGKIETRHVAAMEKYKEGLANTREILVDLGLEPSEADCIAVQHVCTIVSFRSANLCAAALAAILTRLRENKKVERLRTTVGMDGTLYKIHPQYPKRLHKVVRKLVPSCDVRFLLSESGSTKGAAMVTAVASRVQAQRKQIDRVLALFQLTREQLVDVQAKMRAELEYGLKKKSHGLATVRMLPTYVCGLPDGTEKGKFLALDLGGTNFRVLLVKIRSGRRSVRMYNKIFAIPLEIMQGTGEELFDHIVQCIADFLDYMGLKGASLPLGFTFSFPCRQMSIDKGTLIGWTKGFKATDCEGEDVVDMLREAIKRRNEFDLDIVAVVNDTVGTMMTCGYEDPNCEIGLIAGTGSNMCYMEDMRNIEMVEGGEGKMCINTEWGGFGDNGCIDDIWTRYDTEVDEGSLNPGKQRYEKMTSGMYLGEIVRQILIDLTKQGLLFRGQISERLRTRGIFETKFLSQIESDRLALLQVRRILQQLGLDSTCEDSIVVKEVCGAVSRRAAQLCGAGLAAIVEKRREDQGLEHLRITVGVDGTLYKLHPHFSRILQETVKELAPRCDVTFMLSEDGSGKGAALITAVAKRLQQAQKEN
The test can be described thus: activation of HKDC1 glucose phosphorylation – biochemical, W721R variant, dose response (AID 504730). The test is classed as functional.

Test [5] concerns the target Cystic fibrosis transmembrane conductance regulator/Golgi-associated PDZ and coiled-coil motif-containing protein (Homo sapiens, UniProt P13569+Q9HD26). The test can be described thus: potency against CAL PDZ-peptide interaction – biochemical, fluorescence polarization, Cerulean-tagged CAL PDZ, cherry-picks, dose response (AID 504773).
Test [6] concerns the target NACHT, LRR and PYD domains-containing protein 3 (Homo sapiens, UniProt Q96P20). The test can be described thus: NALP3 inhibitors in yeast, dose response, luminescent (AID 488799). The test is classed as functional.
Test [7] has as its system H4. The test can be described thus: Luminescence Cell-Based Dose Response HTS to Identify Activators of 5'UTR Stem-Loop Driven Prion Protein mRNA Translation in H4 Neuroglioblastoma Cells. [Related pubchem assays: 1829 (Project Summary), 1814 (Primary HTS)]. The format is functional. The settings on record: Homo sapiens.
Test [8] in a line: Luminescence Cell-Based Dose Confirmation HTS to Identify Activators of 5'UTR Stem-Loop Driven Alpha-Synuclein mRNA Translation in H4 Neuroglioblastoma Cells. [Related pubchem assays: 1829 (Project Summary), 1814 (Primary HTS)]. The format is functional.
Test [9] is described as follows: Luminescence Cell-Based Dose Response HTS to Identify Activators of Luciferase Translation or Activity in H4 […] Cells. [Related pubchem assays: 1829 (Project Summary), 1814 (Primary HTS)]. The test is classed as functional.
The target in test [10] is Cytochrome P450 2C9 (Homo sapiens, UniProt P11712).
In test [11] the target is Cytochrome P450 2D6 (Homo sapiens, UniProt P10635).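 Further: CYP2D6 member of a cytochrome P450 panel assay.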
Test [12] deals with Cytochrome P450 2C19 (Homo sapiens, UniProt P33261). In words: Cytochrome panel assay with activity outcomes. Panel member name: p450-cyp2c19 Compounds with AC50 equal or less than 10 uM are considered active. The test is classed as functional. The conditions noted are these: read-out: AC50.
Chain of Cytochrome P450 2C19 (P33261 whole entry): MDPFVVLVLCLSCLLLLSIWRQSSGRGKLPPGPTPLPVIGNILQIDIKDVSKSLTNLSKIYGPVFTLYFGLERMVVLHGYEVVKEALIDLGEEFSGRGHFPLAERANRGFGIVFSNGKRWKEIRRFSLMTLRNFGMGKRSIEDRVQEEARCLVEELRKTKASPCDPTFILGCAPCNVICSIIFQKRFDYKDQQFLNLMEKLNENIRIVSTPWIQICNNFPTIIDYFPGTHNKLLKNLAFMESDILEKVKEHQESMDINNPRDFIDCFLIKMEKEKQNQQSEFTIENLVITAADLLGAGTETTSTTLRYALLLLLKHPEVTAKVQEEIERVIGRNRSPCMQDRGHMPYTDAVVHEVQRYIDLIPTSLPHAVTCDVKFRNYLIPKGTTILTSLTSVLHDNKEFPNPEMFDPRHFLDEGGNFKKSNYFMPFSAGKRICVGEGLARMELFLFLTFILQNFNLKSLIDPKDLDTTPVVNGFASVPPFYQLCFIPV
Test [13] deals with Intestinal-type alkaline phosphatase (Homo sapiens, UniProt P09923). The test can be described thus: Dose Response confirmation of uHTS hits from a small molecule inhibitors of human intestinal alkaline phosphatase via a luminescent assay. [Related pubchem assays (depositor defined):AID2544, AID2574]. The format is functional.
Test [14] addresses T2, Coagulation factor XII (Homo sapiens, UniProt P00748).
T2 sequence (P00748 whole entry): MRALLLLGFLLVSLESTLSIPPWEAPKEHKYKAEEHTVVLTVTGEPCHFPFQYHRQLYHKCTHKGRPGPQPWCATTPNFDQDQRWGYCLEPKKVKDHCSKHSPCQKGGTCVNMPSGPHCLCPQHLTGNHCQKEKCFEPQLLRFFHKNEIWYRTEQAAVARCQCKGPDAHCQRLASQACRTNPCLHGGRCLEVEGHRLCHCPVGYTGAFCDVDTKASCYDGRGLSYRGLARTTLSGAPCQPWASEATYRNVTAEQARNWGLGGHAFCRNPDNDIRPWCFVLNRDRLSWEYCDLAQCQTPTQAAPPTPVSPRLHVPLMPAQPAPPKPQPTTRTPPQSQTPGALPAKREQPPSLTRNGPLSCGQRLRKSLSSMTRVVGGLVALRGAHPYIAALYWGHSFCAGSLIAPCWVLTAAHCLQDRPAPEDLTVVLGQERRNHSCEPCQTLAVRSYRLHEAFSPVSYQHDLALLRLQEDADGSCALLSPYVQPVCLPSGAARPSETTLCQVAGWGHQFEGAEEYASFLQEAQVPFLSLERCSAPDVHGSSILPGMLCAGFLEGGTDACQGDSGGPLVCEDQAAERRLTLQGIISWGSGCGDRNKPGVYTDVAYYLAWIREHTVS
The test can be described thus: activated coagulation factor XII inhibitor potency, concentration-effect curve, cell-free (AID 716). The test is classed as functional.

Test [15] addresses T3, DNA dC->dU-editing enzyme APOBEC-3G (Homo sapiens, UniProt Q9HC16). In words: Dose Response confirmation of small molecule APOBEC3G DNA Deaminase Inhibitors via a fluorescence-based single-stranded DNA deaminase assay. [Related pubchem assays (depositor defined):AID493012, AID493028]. The test is classed as functional.
Test [16] addresses T4, DNA dC->dU-editing enzyme APOBEC-3A (Homo sapiens, UniProt P31941). In words: A3A deaminase inhibition for selectivity – biochemical, dose response (AID 504722). The format is functional.
The subject of test [17] is Saccharomyces cerevisiae. The test can be described thus: S. cerevisiae Caspase-1/ASC signal blockers IC50, NALP1 inhibitor project selectivity test (AID 488863). The test is classed as functional, organism-based.
Test [18] concerns the target NACHT, LRR and PYD domains-containing protein 1 (Homo sapiens, UniProt Q9C000). In words: NALP1 inhibitors in yeast, dose response, luminescent (AID 488860). The test is classed as functional.
Test [19] has as its target T5, Calpain-2 catalytic subunit (Sus scrofa, UniProt P43367).
T5 sequence (P43367 whole entry): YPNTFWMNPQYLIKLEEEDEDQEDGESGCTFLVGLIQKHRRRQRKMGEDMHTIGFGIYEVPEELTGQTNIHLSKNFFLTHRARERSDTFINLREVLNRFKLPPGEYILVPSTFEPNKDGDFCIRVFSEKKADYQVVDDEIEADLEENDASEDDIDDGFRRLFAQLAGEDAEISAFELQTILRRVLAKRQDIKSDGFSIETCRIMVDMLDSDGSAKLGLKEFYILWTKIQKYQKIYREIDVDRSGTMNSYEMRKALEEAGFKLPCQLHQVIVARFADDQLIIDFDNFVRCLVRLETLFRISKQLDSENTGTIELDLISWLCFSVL
The test can be described thus: m-calpain protease blockers, concentration series – biochemical, fluorogenic peptide substrate, dose response (AID 1420). The format is functional.

Test [20] has as its target G-protein coupled receptor 55 (Homo sapiens, UniProt Q9Y2T6). The test can be described thus: selective activators of receptor GPR55 – imaging, U2OS cells, beta-arrestin-GFP redistribution, primary screen (AID 1961). The test is classed as functional.
The target in test [21] is CAAX prenyl protease 2 (Saccharomyces cerevisiae S288c, UniProt Q03530). The test is classed as biochemical.
Test [22] has as its target Trypsin (Sus scrofa, UniProt P00761). The test can be described thus: trypsin protease activity blockade – biochemical, quenched peptide fluorescence, cherry-pick, selectivity assay for Rce1 protease inhibitor project, dose response (AID 488789).
Test [23] can be described thus: NIH/3T3 cell viability loss – mouse embryonic fibroblasts, dry powder, set 2, cytotoxicity control, dose response (AID 493247). The test is classed as functional, cell-based. The conditions noted are these: Fibroblast.
Test [24] has as its target T3, DNA dC->dU-editing enzyme APOBEC-3G. The format is functional.
Test [25] has as its target T4, DNA dC->dU-editing enzyme APOBEC-3A. The test can be described thus: Dose Response confirmation of small molecule APOBEC3A DNA Deaminase Inhibitors via a fluorescence-based single-stranded DNA deaminase assay. [Related pubchem assays (depositor defined):AID493011, AID493024]. The test is classed as functional.
Test [26] in a line: Luminescence Cell-Based Dose Retest to Confirm Inhibitors of Cancer Stem Cells. [Related pubchem assays (depositor defined):AID2717, AID2721]. The format is functional. The settings on record: Homo sapiens.
The target of test [27] is DNA damage-inducible transcript 3 protein (Mus musculus, UniProt P35639). The test is classed as functional, Cricetulus griseus.
Chain of DNA damage-inducible transcript 3 protein (P35639 whole entry): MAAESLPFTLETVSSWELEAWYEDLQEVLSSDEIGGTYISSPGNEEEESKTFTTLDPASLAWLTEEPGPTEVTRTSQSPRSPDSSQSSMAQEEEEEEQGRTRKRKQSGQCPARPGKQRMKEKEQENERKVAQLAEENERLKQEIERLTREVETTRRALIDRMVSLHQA
The subject of test [28] is T-cell. In words: loss of vesicle association with mouse CD8+ T cells – mouse 2C CD8+ T cells, flow cytometry, dose response (AID 485284). The format is functional. (In flow cytometry, cells or beads pass a laser one at a time.)

The source made the active and inactive calls.

T3 sequence (Q9HC16 whole entry): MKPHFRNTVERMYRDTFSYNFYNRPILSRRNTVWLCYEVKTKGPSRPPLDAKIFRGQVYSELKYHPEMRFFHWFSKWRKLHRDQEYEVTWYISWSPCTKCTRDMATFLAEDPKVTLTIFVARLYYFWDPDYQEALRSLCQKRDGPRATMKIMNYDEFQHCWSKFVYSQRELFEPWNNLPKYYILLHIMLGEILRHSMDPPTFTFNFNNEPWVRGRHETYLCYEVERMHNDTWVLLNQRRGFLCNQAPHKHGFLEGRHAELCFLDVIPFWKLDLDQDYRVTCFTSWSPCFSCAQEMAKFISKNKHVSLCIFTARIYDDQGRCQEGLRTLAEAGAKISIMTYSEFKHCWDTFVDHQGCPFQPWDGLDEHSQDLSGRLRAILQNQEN
T4 sequence (P31941 whole entry): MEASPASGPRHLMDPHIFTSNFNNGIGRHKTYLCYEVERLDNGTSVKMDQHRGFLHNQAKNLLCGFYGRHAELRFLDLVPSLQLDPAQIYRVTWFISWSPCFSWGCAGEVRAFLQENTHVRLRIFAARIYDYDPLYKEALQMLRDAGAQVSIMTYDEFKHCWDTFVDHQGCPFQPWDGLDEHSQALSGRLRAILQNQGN
Chain of Trypsin (P00761 whole entry): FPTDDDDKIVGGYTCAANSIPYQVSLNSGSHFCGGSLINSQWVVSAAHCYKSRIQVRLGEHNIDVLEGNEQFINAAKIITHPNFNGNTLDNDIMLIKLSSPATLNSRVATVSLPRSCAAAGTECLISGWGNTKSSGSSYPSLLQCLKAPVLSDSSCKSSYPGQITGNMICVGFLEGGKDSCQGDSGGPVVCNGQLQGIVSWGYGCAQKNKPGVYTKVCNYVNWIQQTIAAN
Chain of NACHT, LRR and PYD domains-containing protein 1 (Q9C000 1-1212 limits assumed): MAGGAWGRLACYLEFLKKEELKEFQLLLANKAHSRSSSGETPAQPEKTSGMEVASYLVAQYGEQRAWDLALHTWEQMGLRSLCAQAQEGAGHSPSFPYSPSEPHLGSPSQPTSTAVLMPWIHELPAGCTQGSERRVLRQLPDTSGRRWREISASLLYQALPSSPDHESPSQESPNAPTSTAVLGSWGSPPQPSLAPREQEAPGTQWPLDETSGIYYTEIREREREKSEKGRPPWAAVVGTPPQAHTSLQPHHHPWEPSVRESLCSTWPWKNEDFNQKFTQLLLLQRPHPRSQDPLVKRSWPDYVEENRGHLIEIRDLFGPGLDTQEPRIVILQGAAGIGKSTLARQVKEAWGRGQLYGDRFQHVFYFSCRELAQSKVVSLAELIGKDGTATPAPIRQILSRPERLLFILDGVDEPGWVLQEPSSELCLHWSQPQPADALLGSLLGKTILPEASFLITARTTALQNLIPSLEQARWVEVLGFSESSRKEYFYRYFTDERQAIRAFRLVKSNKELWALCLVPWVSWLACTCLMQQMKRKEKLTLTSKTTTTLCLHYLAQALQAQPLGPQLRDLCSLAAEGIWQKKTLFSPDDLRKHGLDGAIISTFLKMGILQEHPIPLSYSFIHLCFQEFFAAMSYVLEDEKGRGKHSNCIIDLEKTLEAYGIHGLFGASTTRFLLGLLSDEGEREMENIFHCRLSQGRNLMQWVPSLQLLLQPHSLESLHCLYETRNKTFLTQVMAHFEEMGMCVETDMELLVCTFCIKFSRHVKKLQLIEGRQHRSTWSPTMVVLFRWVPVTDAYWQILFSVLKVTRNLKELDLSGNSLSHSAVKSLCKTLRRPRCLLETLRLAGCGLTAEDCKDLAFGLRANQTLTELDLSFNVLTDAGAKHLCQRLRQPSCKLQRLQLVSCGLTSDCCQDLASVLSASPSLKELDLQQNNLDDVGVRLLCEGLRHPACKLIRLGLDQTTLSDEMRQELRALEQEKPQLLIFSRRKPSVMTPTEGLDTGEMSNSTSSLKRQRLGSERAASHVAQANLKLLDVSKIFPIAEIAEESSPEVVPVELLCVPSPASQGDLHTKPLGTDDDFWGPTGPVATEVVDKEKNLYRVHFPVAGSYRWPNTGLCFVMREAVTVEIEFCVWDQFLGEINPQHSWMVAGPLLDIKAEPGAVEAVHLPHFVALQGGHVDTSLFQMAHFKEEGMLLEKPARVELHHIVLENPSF
Chain of NACHT, LRR and PYD domains-containing protein 1 (Q9C000 1213-1473 limits assumed): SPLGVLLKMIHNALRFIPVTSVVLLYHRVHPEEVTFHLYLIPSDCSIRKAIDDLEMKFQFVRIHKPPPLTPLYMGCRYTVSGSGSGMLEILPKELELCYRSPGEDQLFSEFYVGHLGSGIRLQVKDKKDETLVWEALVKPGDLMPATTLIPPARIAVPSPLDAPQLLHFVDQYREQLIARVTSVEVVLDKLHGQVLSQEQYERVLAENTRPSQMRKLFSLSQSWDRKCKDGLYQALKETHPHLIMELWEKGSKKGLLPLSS
Chain of Cystic fibrosis transmembrane conductance regulator/Golgi-associated PDZ and coiled-coil motif-containing protein (P13569 whole entry, other chains not shown, the tested form may be a part): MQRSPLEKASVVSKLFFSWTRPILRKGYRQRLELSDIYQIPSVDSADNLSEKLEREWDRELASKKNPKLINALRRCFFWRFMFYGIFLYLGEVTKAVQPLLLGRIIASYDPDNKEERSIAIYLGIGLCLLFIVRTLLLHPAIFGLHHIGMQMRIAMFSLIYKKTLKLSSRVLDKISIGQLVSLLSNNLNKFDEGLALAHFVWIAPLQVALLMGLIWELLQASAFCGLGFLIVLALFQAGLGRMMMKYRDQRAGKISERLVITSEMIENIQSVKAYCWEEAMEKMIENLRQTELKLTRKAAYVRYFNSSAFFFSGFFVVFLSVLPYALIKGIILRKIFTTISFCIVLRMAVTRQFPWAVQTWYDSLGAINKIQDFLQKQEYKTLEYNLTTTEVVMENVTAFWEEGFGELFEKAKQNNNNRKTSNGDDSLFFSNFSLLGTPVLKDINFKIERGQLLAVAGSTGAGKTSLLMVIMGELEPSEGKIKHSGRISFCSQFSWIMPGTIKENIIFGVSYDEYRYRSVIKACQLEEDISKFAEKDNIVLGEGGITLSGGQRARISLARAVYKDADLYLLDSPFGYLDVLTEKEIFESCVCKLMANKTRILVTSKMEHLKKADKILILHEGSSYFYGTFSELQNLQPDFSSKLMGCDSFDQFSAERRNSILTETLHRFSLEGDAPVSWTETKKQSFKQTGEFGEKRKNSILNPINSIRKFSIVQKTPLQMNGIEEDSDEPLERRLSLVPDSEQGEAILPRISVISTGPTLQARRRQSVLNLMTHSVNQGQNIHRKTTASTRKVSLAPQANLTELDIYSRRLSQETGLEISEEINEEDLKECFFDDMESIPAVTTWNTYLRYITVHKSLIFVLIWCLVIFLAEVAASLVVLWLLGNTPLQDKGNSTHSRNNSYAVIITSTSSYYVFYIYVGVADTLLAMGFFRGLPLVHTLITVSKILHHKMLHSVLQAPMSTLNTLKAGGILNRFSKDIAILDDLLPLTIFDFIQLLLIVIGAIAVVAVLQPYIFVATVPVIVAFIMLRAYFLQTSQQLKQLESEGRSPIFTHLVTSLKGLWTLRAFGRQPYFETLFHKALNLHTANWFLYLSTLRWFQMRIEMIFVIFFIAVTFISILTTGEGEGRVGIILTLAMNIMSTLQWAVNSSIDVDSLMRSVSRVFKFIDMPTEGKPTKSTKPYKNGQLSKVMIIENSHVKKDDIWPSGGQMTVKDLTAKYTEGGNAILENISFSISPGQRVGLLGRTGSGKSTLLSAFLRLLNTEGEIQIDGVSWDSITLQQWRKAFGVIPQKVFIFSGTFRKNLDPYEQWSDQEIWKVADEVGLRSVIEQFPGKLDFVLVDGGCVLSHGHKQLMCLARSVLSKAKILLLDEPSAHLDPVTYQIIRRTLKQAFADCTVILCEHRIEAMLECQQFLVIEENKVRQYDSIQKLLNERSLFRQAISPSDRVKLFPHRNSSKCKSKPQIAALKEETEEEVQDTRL

As to `CC(C)(C)c1ccc(C(=O)Nc2cc(Cl)c(Cl)cc2C(=O)O)cc1`, the IC50 in test [1] is 1.36 µM (active).
Regarding `O=C(COc1ccc(F)cc1)Nc1nnc(-c2ccc(F)cc2)o1`, in test [2], the EC50 is 10 µM (active).
Consider `Cn1c(=O)c2c(nc(NN/C=C3/C(=O)NC(=S)N(C4CCCCC4)C3=O)n2C)n(C)c1=O`, for which the EC50 in [3] is 75.9 µM (inactive); in [4], > 80 µM (inactive).
Take `c1ccc(C(c2ccccc2)c2cccnc2)cc1`: in test [5], the AC50 was 45.6 µM (active).
For the compound `COc1ccc(NC(=O)C#Cc2ccccc2)cc1`, the IC50 in test [6] was 8.01 µM (active). Also, the EC50 is 22.1 µM (active) in [7], 0.192 µM (active) in test [8] and 32.6 µM (active) in [9].
`O=c1c2c(-c3cccs3)csc2ncn1-c1ccc(Br)cc1`: the AC50 in [10] is 3.98 µM (inconclusive); in test [11] it was 3.55 µM (inconclusive); in [12], 2.24 µM (inconclusive). Moreover, the IC50 in [13] is > 100 µM (inactive).
As for `COc1ccccc1-n1c(S)nnc1CNC(=O)COc1ccccc1`, the IC50 in test [14] is > 50 µM (inactive).
Take `Sc1nnc(-c2ccc(Cl)cc2)n1CC1CCCO1` (stereo not drawn): the IC50 in test [15] was 6.14 µM (active); in [16] it was > 100 µM (inactive).
`O=S(=O)(Nc1ccc(-n2cccc2)cc1)c1ccc(Cl)cc1Cl`: the IC50 in test [17] was 56.8 µM (active); in test [18], 18.3 µM (active); in [19] it was 9.85 µM (not active).
As to `CC(C)C[C@@H](COc1ccccc1)N1CCN(CCc2ccccc2)CCC1=O`, the EC50 in test [20] was 2.69 µM (active).
In the case of `COc1ccccc1-c1cc(C(F)(F)F)n2ncc(S(=O)(=O)c3ccccc3)c2n1`, the AC50 in [21] was 75.9 µM (active); in test [22], 13.1 µM (active).
Take `COc1cc2c(cc1OC)CN(C(=O)C1CCCN(Cc3ccccc3)C1)CC2` (stereo not drawn): the AC50 in test [23] was 52.7 µM (active).
`Cc1cc(N/N=C/c2ccc(O)cc2)nc(NS(=O)(=O)c2ccccc2)n1`: the IC50 in test [24] is 72.6 µM (active); in test [25], 21.9 µM (active).
For the compound `NC(=O)CC(NC(=O)Cc1cccc2ccccc12)c1ccc(NCc2ccccc2)c([N+](=O)[O-])c1` (stereo not drawn), in [26], the AC50 is 5.5 µM (active). In addition, the “Absolute IC50 (CHOP)” value in test [27] stood at 10 µM.
Consider `COc1ccc2c(c1)C1NC(S)=NC(C)(O2)C1C(=O)Nc1ccc(Cl)cc1` (stereo not drawn), for which, in test [28], the EC50 is 31.3 µM (inactive).
